Measurements as given in US20260102507A1, “CAMPTOTHECIN DERIVATIVE FOR TREATING OR PREVENTING CANCER AND ANTIBODY-DRUG CONJUGATE THEREOF” (CHENGDU BRILLIANT PHARMACEUTICAL CO., LTD., priority 2023, published 2026).
Like-named read-outs stand apart in the source and are kept apart here.

Experiments:
Experiment in all cases: Cytotoxicity assay of camptothecin derivative toxins (Example A')
Assay type in all cases: cell-based
[1] = system: human colon cancer cell line HCT116; settings: read-out: IC50 (nM) HCT116
Experimental: (§1) The camptothecin derivatives of the Examples of the present application were serially diluted with DMSO and the corresponding cell culture medium, and were added into a white-walled 96-well plate. Tumor cells (human ovarian cancer cell line SK-OV-3; human colon cancer cell line HCT116; human lung adenocarcinoma cell line A549; human lung adenocarcinoma cell line NCI-H441; human oral epidermoid carcinoma cell line KB) in logarithmic growth phase were digested and adjusted to a density of approximately 3.33×10^4 cells/mL. The cells were plated at 90 µL/well on the white-walled 96-well plate that was pre-loaded with the samples, followed by incubation at 37° C. in a 5% CO2 incubator for 3 days. The growth inhibitory effect of the small molecule compounds on tumor cells was evaluated by the Cell Titer Turbo 2.0 Luminescent Cell Viability Assay (Damas life, RA-GL11). Relative light unit (RLU) values were read from the cell culture plates using a microplate reader. Experimental data were analyzed with GraphPad Prism 8.0 software to calculate IC50 values.

[2] = system: human lung adenocarcinoma cell line A549; settings: read-out: IC50 (nM) A549
Experimental: as §1

[3] = system: human lung adenocarcinoma cell line NCI-H441; settings: read-out: IC50 (nM) NCI-H441
Experimental: as §1

[4] = system: human ovarian cancer cell line SK-OV-3; settings: read-out: IC50 (nM) SK-OV-3
Experimental: as §1

[5] = Homo sapiens, HCT-116, 72 h, Example A', 3 days incubation
[6] = Homo sapiens, A549, 72 h, Example A', 3 days incubation
[7] = Homo sapiens, NCI-H441, 72 h, Example A', 3 days incubation
[8] = Homo sapiens, SK-OV-3, 72 h, Example A', 3 days incubation

Structure (SMILES) | IC50 [1, 5] [nM] | IC50 [2, 6] [nM] | IC50 [3, 7] [nM] | IC50 [4, 8] [nM] | also measured
CC[C@@]1(O)C(=O)OCc2c1cc1n(c2=O)Cc2c-1nc1cc(F)c(C)cc1c2NCCO [STI-F5, (S)-4-ethyl-8-fluoro-4-hydroxy-11-((2-hydroxyethyl)amino)-9-methyl-1,12-dihydro-14H-pyrano[3′,4′:6,7]indolizino[1,2-b]quinoline-3,14(4H)-dione] | 19 | 387 | 32.3 | 16.9 | 
CC[C@@]1(O)C(=O)OCc2c1cc1n(c2=O)Cc2c-1nc1cc(F)c(C)cc1c2NC/C=C/CO [STI-F8, (S,E)-4-ethyl-8-fluoro-4-hydroxy-11-((4-hydroxybut-2-en-1-yl)amino)-9-methyl-1,12-dihydro-14H-pyrano[3′,4′:6,7]indolizino[1,2-b]quinoline-3,14(4H)-dione] | 11.4 | 278 | 24.9 | 12.3 | 
CC[C@@]1(O)C(=O)OCc2c1cc1n(c2=O)Cc2c-1nc1cc(F)c(C)cc1c2N1CCC(CO)CC1 [STI-F14, (S)-4-ethyl-8-fluoro-4-hydroxy-11-(4-(hydroxymethyl)piperidin-1-yl)-9-methyl-1,12-dihydro-14H-pyrano[3′,4′:6,7]indolizino[1,2-b]quinoline-3,14(4H)-dione] | 12.4 | 156 | 11.1 |  | 
CC[C@@]1(O)C(=O)OCc2c1cc1n(c2=O)Cc2c-1nc1cc(F)c(C)cc1c2N[C@H]1CC[C@H](CO)CC1 [STI-F15, (S)-4-ethyl-8-fluoro-4-hydroxy-11-(((1r,4S)-4-(hydroxymethyl)cyclohexyl)amino)-9-methyl-1,12-dihydro-14H-pyrano[3′,4′:6,7]indolizino[1,2-b]quinoline-3,14(4H)-dione] |  |  |  |  | IC50 ([1]; Example A', 3 days incubation): 22.6 nM; IC50 ([2]; Example A', 3 days incubation): 542 nM; IC50 ([3]; Example A', 3 days incubation): 50.9 nM; IC50 ([4]; Example A', 3 days incubation): 28.7 nM
CC[C@@]1(O)C(=O)OCc2c1cc1n(c2=O)Cc2c-1nc1cc(F)c(C)cc1c2NCCCCCO [STI-F17, (S)-4-ethyl-8-fluoro-4-hydroxy-11-((5-hydroxypentyl)amino)-9-methyl-1,12-dihydro-14H-pyrano[3′,4′:6,7]indolizino[1,2-b]quinoline-3,14(4H)-dione] | 17.2 | 377 | 28.7 | 20 | 
CC[C@@]1(O)C(=O)OCc2c1cc1n(c2=O)Cc2c-1nc1cc3c(cc1c2NCCCCO)OCO3 [STI-F18, (S)-7-ethyl-7-hydroxy-14-((4-hydroxybutyl)amino)-10,13-dihydro-11H-[1,3]dioxolo[4,5-g]pyrano[3′,4′:6,7]indolizino[1,2-b]quinoline-8,11(7H)-dione] |  |  |  |  | IC50 ([1]; Homo sapiens, HCT-116, 72 h): 58.7 nM; IC50 ([2]; Homo sapiens, A549, 72 h): 454 nM; IC50 ([3]; Homo sapiens, NCI-H441, 72 h): 42 nM; IC50 ([4]; Homo sapiens, SK-OV-3, 72 h): 44.6 nM
